The values below come from a melting point compilation (Tetko et al.; mined from patent text by program, amines drawn as free bases though some values may be those of a salt).

Molecules are shown by their SMILES.

As usually defined, the melting point is the temperature of the solid-liquid transition. In the case of `CC1=C(C(=O)OCCN(C)Cc2ccccc2)C(c2cccc3c(=O)c(C)c(-c4ccccc4)oc23)C(C(=O)OC(C)C)=C(C)N1` (stereo not drawn), the melting point lay within 170 to 172 °C.
Then `NS(=O)(=O)c1cc2[nH]c(-c3ccccc3)nc2cc1Cl`, with 314 to 316 °C.
Regarding `CN(Cc1cc(C(F)(F)F)cc(C(F)(F)F)c1)C1CCN(c2ccc(OC[C@@]3(C)Cn4cc([N+](=O)[O-])nc4O3)cc2)CC1`, the melting point lay in the range of 194 to 195 °C.
Under `CC(Oc1ccc(-c2cccc(C(N)=O)c2)cc1)C(O)CCc1cccnc1` (stereo not drawn) stands 74 to 76 °C; under `CCCCCCCCCCCCOC(=O)c1cc([N+](=O)[O-])c(C(=O)O)cc1C(=O)O`, 148 °C; under `COc1ccc2c3c(c(=O)oc2c1OC)CN(Cc1ccccc1)CC3`, 138 to 140 °C.
Then `O=S(=O)(N[C@H]1CC[C@H](CCN2CCN(c3nccc4c3OCC4)CC2)CC1)c1ccccc1`, with 122 °C; and `Cc1cccc(-c2nc3ccc(OCC(C)N(C)C)cc3n2Cc2ccccc2)c1` (stereo not drawn), with 74 °C; and `COc1ccc(-c2cc(-c3ccc(-c4c(Cc5ccccc5)sc5ccccc45)cc3)cc(Br)c2OCC(=O)O)cc1OC`, with 103 to 105 °C.
In turn, `C=CCNC(=O)N1CC(OCc2ccc(C(F)(F)F)cc2)C1` had a melting point of 120 °C.
Under `CNC(C)=Nc1ccc(-c2c[nH]cn2)cc1` stands 226 to 227 °C; under `N#Cc1ccccc1-c1cccc(-c2cnc3nc(C(F)(F)F)cnn23)c1F`, 167 to 168 °C.
Then `O=C(Nc1cnc(-c2ccccc2)nc1C(=O)O)OCc1cc2cc(-c3ccccc3)ccc2o1`, with 184 to 185 °C.
Under `CCCNC(=O)Cc1cnc2cccc(C)n2c1=O` stands 96 to 98 °C; under `CCOc1cc2c(c(Cl)c1O)Sc1ccccc1N2`, 186 to 189 °C; under `O=C(OCc1cc(OCCCBr)cc(OCCCBr)c1)c1ccccc1`, 85 to 87.5 °C.
Turning to `CCOC(=O)c1ccc(Nc2ccc([N+](=O)[O-])cc2N)cc1`, the melting point was in the range of 145 to 150 °C.
In the case of `NC(=O)c1ncn2c1[C@@H]1CCCN1C(=O)c1c-2ccc(F)c1F`, the melting point lay within 221 to 224 °C.
Under `CCCN(CCC)[C@H]1Cc2c[nH]c3ccc(-c4cccnc4)c(c23)C1` stands 185 to 186 °C; under `CCc1nc2c(cnn2CC)c(NC2CCOCC2)c1CNC(=O)c1cccc(C(=O)NCc2ccc(Cl)c(-c3cccc(C=O)c3)c2)c1`, 131 to 134 °C.
The molecule `Fc1ccc(Cn2c(NC3CCN(CCc4cccs4)CC3)nc3ccccc32)cc1` showed a melting point of 152 °C.
Then `COc1ccccc1N1CCN(CC(O)COc2cccc(C(=O)C=CN(C)C)c2)CC1` (stereo not drawn), with 131 °C; and `Oc1cc(Cl)ccc1Oc1cccc(Br)c1`, with 63 to 65 °C.
Under `O=C1NCCc2c(-c3ccsc3)[nH]c3cccc1c23` stands 255 to 256 °C; under `N#CC(N)=C(C#N)N=C1c2ccccc2-c2ccccc21`, 156 to 157 °C.
In turn, `CC(C)C[C@H](NC(=O)OC(C)(C)C)[C@H](O)c1nccs1` gave a melting point of 121 to 122 °C.
Under `CC(=O)Nc1cc(F)ccc1C(=O)NCCN1CCC(O)(c2ccc(Cl)cc2)CC1` stands 175 °C; under `CCCCN(CCCC)C(=O)c1c(C)n(CCc2ccccc2)c2cc(C(=O)CC)c(O)c(CN3CCCCC3)c12`, 111 to 112 °C; under `CN1CCCCC1CCc1ccccc1NC(=O)c1ccc(C(F)(F)F)cc1` (stereo not drawn), 150 °C.
Then `CCCC[C@H](NC(=O)CC[C@H](C)CNC(=O)COc1ccccc1)C(=O)CS(=O)Cc1ccco1` (stereo partly drawn), with 96 to 99 °C; and `O=C(O)CCc1nnc2c(=O)[nH]c3cc(C(F)(F)F)ccc3n12`, with 333 °C.
`COc1cc(C=O)ccc1OCc1nc(-c2cccc([N+](=O)[O-])c2)oc1C`: the melting point is 179 to 180 °C.
Under `N#Cc1nn(-c2c(Cl)cc(C(F)(F)F)cc2Cl)c(Br)c1S(=O)(=O)C(F)(F)F` stands 136 to 137 °C; under `c1ccc2c(c1)nnn2CSCn1nnc2ccccc21`, 179 to 181 °C; under `Cc1cc(O)c(SCc2cccc3ccccc23)c(=O)o1`, 170 °C.
Then `CC(CF)(CF)C(=O)C=Cc1ccccc1`, with 45 °C; and `CC(=O)Nc1c(C)cc(O)c(C)c1C`, with 189 to 190 °C.
Under `CC1Sc2c(C(=O)O)c(=O)c3cc(F)c(N4CCOCC4)cc3n21` (stereo not drawn) stands 192 to 198 °C; under `COc1ccccc1C(=O)Nc1nc2c(s1)CN(C)CC2`, 164 to 166 °C.
Take `CC(C)(C(=O)N(O)Cc1ccccc1Cl)C(Cl)Cl`: the melting point was 136 to 138 °C.
Then `CS(=O)(=O)Oc1ccc([C@@H]2CCNC(=O)[C@H]2c2ccccc2)cc1` (relative stereo), with 199 °C; and `COc1c(Cl)cc(-c2ccc(=O)[nH]n2)cc1Cl`, with 245 to 251 °C.
As to `CCc1cccc(CC(=O)O)c1OCCCc1cn(-c2ccc(C(F)(F)F)nn2)nc1C(CC)CC`, the melting point was 93 to 94 °C.
Then `CS(=O)(=O)Nc1ccc([N+](=O)[O-])cc1C=C1CCCCC1`, with 174 to 175 °C.
Under `CC(=O)Nc1cc2c(cc1[N+](=O)[O-])C(CC(C)C)C(=O)N2` (stereo not drawn) stands 192 to 197 °C; under `CCOC(=O)C=CC(C)=CC=C(C)C=CC1=C(C)CCCC1(C)C`, 65 to 66 °C; under `CSc1sc(C(=O)O)c2c1-c1oc(C)nc1CC2`, above 300 °C.
Then `CC(C)c1nn(-c2ccc(C(F)(F)F)cn2)cc1CCO`, with 74 to 75 °C; and `CCC(CC)O[C@@H]1C=C(C(=O)O)C[C@H](CC2CO2)[C@H]1NC(C)=O` (stereo partly drawn), with 115 to 116 °C; and `COc1cc(N)c(S(C)(=O)=O)cc1C(=O)NCC1CCCN1C` (stereo not drawn), with 190 to 191 °C.
Consider `CON(c1ccc([N+](=O)[O-])cc1Cl)S(=O)(=O)c1ccc(Cl)c([N+](=O)[O-])c1`, for which the melting point is 138 to 139 °C.
On to `c1ccc2c(c1)CC(CN1CCC(c3c[nH]c4cc5c(cc34)OCO5)CC1)C2`, for which the melting point lay within 187 to 188 °C.
As to `CC(c1ccccc1)c1cccnn1` (stereo not drawn), the melting point lay within 43 to 48 °C.
Then `COc1ccccc1-c1ccc(-c2ccc(C(=O)O)cc2)cc1-c1ccc2c(c1)C(C)(C)CCC2(C)C`, with 133 to 136 °C; and `COc1cn(-c2ccc(-n3cccn3)cc2F)nc(C(=O)N(C)OC)c1=O`, with 187 to 189 °C; and `COc1ccc(S(=O)(=O)Nc2ccc(N(C)C)nc2Nc2ccccc2)cc1`, with 152 to 153 °C.
On to `CCNC(=O)Nc1nccc(-c2ccncc2)n1`, for which the melting point is 204 to 207 °C.
Then `Cc1cc(C(Cc2ccc(CCCc3nc(-c4ccccc4)oc3C)cc2)C(=O)O)no1` (stereo not drawn), with 75 to 80 °C.
Under `COc1cc(C)nc(NC(=O)NS(=O)(=O)c2cccc(NC(=O)NC(C)(C)C)c2)n1` stands 137 to 145 °C.
Under `O=C(O)c1ncoc1-c1ccoc1` stands 189 to 191 °C.
In turn, `COC(=O)C=Cc1ccc(O)cc1` yielded a melting point of 139 to 140 °C.
Then `CCC(CC)(CO)CCCS(=O)(=O)N=CN(C)C`, with 87 to 88 °C.
Under `CCCCC(=O)Nc1c(N)ccnc1Cl` stands 163 °C.
Under `Cc1nc(COc2ccc3nc(N)c4nc5n(c4c3c2)C(C)COC5)cs1` (stereo not drawn) stands 105 to 107 °C; under `COC(=O)c1ccc2sccc2c1O`, 94 to 95 °C; under `CCON=C(CC)C1=C(O)CC(c2c(C)c3c(c(C)c2Cl)CC(C)(CC)C3)CC1=O` (stereo not drawn), 56 to 58 °C.
`CCC(CC)n1nnc2c([N+](=O)[O-])cccc21`: the melting point lay within 129 to 132 °C.
Then `N#CC1=C(NN)C(=O)NC1=O`, with above 350 °C.
In turn, `Cc1cccc(NC(=O)NC2C(=O)N(C)c3ccccc3N(C34CC5CC(CC(C5)C3)C4)C2=O)c1` (stereo not drawn) came in with a melting point of 245 to 247 °C.
Then `CC(C)C1(C(C)C)C(=O)N=C2c3ccccc3C(=O)N21`, with 146 to 148 °C.
Then `Nc1cnc(-c2ccc(F)cc2)n(CC(=O)NC(Cc2ccccc2)C(=O)c2nc3ccccc3o2)c1=O` (stereo not drawn), with 233 to 236 °C; and `CN1C(=O)CN(c2ccccc2)C1=O`, with 168 to 170 °C.
Then `CN(C)C(=O)C1Cc2c([nH]c3ccccc23)C(c2ccc3c(c2)OCO3)N1C(=O)C=Cc1ccccc1` (stereo not drawn), with 175 to 178 °C; and `N#CCCNC(=O)c1cccc(-c2ccc3c(c2)N(CCc2cccc(C(F)(F)F)c2)CC3)c1`, with 197 to 198 °C.
`N=C(N)c1ccnc(-c2ccc(-c3ccc(-c4cc(C(=N)N)ccn4)s3)s2)c1` registered a melting point above 300 °C.
Then `COc1ccc(C(=O)c2[nH]c3cc(Cl)ccc3c2NC(C)=O)cc1`, with 137 to 139 °C.
Then `COCc1cnc2c(NC(=O)c3c(Cl)cccc3Cl)cccc2c1-n1ccnc1`, with 145 to 150 °C; and `CCOC(=O)COc1ccc(C23CC4CC(CC(C4)C2)C3)cc1`, with 89 to 90 °C.
Then `O=C(O)CSC1c2cccc(O)c2C(=O)c2c(O)cccc21`, with 151 to 152 °C; and `O=C(O)COc1cc(F)c(N2CCOCC2)cc1C(=O)NCc1ccc(Br)cc1F`, with 180 °C; and `CC(C)Oc1cc(-n2c(=O)c3c(n(C)c2=O)CCC3)c(F)cc1Cl`, with 105 to 107 °C.
`NC1=C2C(=Nc3ccccc3S2(=O)=O)c2ccccc2C1=O`: the melting point fell in the range of 264 to 266 °C.
Consider `COC(=O)c1cccc(CCN(C)CCCC(C(=O)OC)(c2ccc(OC)c(OC)c2)C(C)C)c1` (stereo not drawn), for which the melting point lay in the range of 87 to 90 °C.
Under `CC(=O)c1ccc2c(c1)Sc1cc(Br)ccc1O2` stands 143 to 145 °C; under `COc1ccc(Cl)cc1C(=O)NCCc1ccc(-c2ccccc2)c(S(N)(=O)=O)c1`, 134 to 136 °C; under `C=CCOC(=O)Nc1cc(C(C)(C)C)[nH]n1`, 131 to 132 °C.
Turning to `CSc1ccc2cc(O)ccc2c1`, the melting point fell in the range of 120 to 122 °C.
Under `OCCNc1cc(Nc2ccc(Cl)cc2)ncn1` stands 183 °C.
